Experiment [1] deals with T1, Alpha-Crystallin Domain of alpha B crystallin containing the E117C mutation (Homo sapiens, UniProt P02511, E117C).
T1 construct: the Alpha-Crystallin Domain of alpha B crystallin containing the E117C mutation
T1 sequence (P02511 56-164 E117C limits assumed): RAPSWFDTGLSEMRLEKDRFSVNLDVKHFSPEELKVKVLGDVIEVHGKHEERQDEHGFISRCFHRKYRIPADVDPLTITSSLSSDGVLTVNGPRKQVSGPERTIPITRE
The experiment in a line: CryAB binding assay (MicroScale Thermophoresis, direct binding). As to conditions: 100 nM Cy5-labeled protein, Tris buffer pH 8. The protocol: Example A-2: CryAB Binding Assay
Affinities were determined by MicroScale Thermophoresis using a direct binding assay. Briefly, the Alpha-Crystallin Domain of alpha B crystallin containing the E117C mutation was alkylated with a Cy5 dye and monitored for binding at 100 nM protein in Tris buffer pH 8, containing 0.1% PEG-8000, 0.05% Tween-20, and 5% DMSO. Binding assays were performed by titrating ligand against a mixture of the dye-labeled protein and monitoring fluorescence changes indicating binding. Based on observed fluorescence measurements for each compound titration a KD was calculated using the Law of Mass Action equation.
For orientation: Microscale thermophoresis detects binding through changes in fluorescence in a small temperature gradient.

Experiment [2] addresses T2, Recombinant cryAB(R120G) protein (Homo sapiens, UniProt P02511, R120G).
T2 sequence (P02511 1-175 R120G): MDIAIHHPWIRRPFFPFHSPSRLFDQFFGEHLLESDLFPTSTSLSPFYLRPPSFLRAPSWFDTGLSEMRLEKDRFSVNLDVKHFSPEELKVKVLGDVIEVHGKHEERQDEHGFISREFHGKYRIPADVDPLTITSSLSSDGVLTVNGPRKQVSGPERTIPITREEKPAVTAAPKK
Kind of experiment: Kinetic turbidity aggregation assay of recombinant cryAB(R120G). Type of experiment: biochemical. As to conditions: for inhibition at 25 µM: 25 μM compound, read-out: % Inhibition of Protein Aggregation, 25 μM cmpd; for inhibition at 25 µM / inhibition at 100 µM / inhibition at 400 µM: 15 μM cryAB(R120G), 42° C., absorbance at 550 nm; for inhibition at 100 µM: 100 μM compound, read-out: % Inhibition of Protein Aggregation, 100 μM cmpd; for IC50: inhibition of cryAB(R120G) protein aggregation; for inhibition at 400 µM: 400 μM compound, read-out: % Inhibition of Protein Aggregation, 400 μM cmpd. Summed up: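 Recombinant human cryAB R120G at 15 μM final in 50 mM Tris, 100 mM NaCl, 5 mM DTT, 0.01% Triton X-100, 0.05% PEG-8000 with 4% DMSO. Compounds added from 2-fold serial DMSO dilutions, run in quadruplicate; aggregation followed kinetically by turbidity.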

This is an account of results in US12637425B2, “Compounds and formulations for treating ophthalmic diseases” (Visus Therapeutics, Inc., priority 2020, dated 2026).

Molecules are shown by their SMILES.

What is called Kd is a measure of binding affinity in units of concentration. Higher therefore signals weaker binding. A word on the inhibition: it is the relative decrease from the control value, in per cent. The term IC50 denotes the concentration needed to halve the response being measured.

As for `Cn1cc([C@@H](CNS(=O)(=O)c2ccc3cc[nH]c3c2)N2CCCC2)c2ccccc21` [Compound 24, (S)-N-(2-(1-methyl-1H-indol-3-yl)-2-(pyrrolidin-1-yl)ethyl)-1H-indole-6-sulfonamide], in experiment [1], the dissociation constant Kd is no more than 10 µM. Further, in experiment [2], the inhibition at 25 µM is 99.7%, the inhibition at 100 µM worked out at 99.9% and the IC50 was no more than 10 µM.
Molecule `CCn1nc([C@@H](CNS(=O)(=O)c2ccc3cc[nH]c3c2)N2CCCC2)c2ccccc21` [Compound 91, (R)-N-(2-(1-ethyl-1H-indazol-3-yl)-2-(pyrrolidin-1-yl)ethyl)-1H-indole-6-sulfonamide] came in with a Kd in experiment [1] of no more than 10 µM. Besides, in experiment [2], the inhibition at 25 µM was determined as 99%, the inhibition at 100 µM came out at 99.6% and the half-inhibitory concentration (IC50) is no more than 10 µM.
`Cn1cc([C@H](CNS(=O)(=O)c2ccc3cc[nH]c3c2)N2CCCC2)c2ccccc21` [Compound 25, (R)-N-(2-(1-methyl-1H-indol-3-yl)-2-(pyrrolidin-1-yl)ethyl)-1H-indole-6-sulfonamide] showed an equilibrium dissociation constant (Kd) in experiment [1] of 10 to 50 µM. Further, in experiment [2], the inhibition at 25 µM was determined as 39%, the inhibition at 100 µM came to 97.1%, the inhibition at 400 µM came out at 97.2% and the 50% inhibitory concentration (IC50) was 10 to 50 µM.
In turn, `CN(C)C(CNS(=O)(=O)c1ccc2cc[nH]c2c1)c1cn(C)c2ccccc12` (stereo not shown) [Compound 10, N-(2-(dimethylamino)-2-(1-methyl-1H-indol-3-yl)ethyl)-1H-indole-6-sulfonamide] came in with a dissociation constant (Kd) in experiment [1] of 10 to 50 µM. In experiment [2], the inhibition at 25 µM worked out at 69.8%, the inhibition at 100 µM worked out at 98.7%, the inhibition at 400 µM is 99.7% and the IC50 lay in the range of 10 to 50 µM.
As for `Cn1cc(C(CN(CC#N)S(=O)(=O)c2ccc3cc[nH]c3c2)N2CCCC2)c2ccccc21` (stereo not shown) [Compound 93, N-(cyanomethyl)-N-(2-(1-methyl-1H-indol-3-yl)-2-(pyrrolidin-1-yl)ethyl)-1H-indole-6-sulfonamide], the Kd in experiment [1] is no more than 10 µM. Moreover, in experiment [2], the inhibition at 25 µM is 99.7%, the inhibition at 100 µM was 94.3% and the IC50 is no more than 10 µM.
